Measurements taken from patent US20090018134A1, “Compounds - 945” (AstraZeneca AB, priority 2007, published 2009).
Like-named read-outs stand apart in the source and are kept apart here.

Molecular target: T1, mTOR (Homo sapiens, UniProt P42345)
T1 construct: FLAG; made in house
Test: In Vitro mTOR Kinase Assay (Echo), Test (a)(ii)
Format: biochemical
Summary of the method: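 Enzyme: HEK293-expressed, FLAG-purified mTOR C-terminal fragment (aa 1362-2549). Rxn 2 h RT with biotinylated peptide, stopped with EDTA 50 mM/BSA/Tris pH 7.4. Detection: T389 phospho-antibody AlphaScreen, 680 nm excitation. IC50.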

[1] = table of enzyme assay Test (a)(ii), read-out: Test (a)(ii) IC50
[2] = read-out: mTOR Kinase Assay (Echo)

T1 sequence (P42345 1362-2549): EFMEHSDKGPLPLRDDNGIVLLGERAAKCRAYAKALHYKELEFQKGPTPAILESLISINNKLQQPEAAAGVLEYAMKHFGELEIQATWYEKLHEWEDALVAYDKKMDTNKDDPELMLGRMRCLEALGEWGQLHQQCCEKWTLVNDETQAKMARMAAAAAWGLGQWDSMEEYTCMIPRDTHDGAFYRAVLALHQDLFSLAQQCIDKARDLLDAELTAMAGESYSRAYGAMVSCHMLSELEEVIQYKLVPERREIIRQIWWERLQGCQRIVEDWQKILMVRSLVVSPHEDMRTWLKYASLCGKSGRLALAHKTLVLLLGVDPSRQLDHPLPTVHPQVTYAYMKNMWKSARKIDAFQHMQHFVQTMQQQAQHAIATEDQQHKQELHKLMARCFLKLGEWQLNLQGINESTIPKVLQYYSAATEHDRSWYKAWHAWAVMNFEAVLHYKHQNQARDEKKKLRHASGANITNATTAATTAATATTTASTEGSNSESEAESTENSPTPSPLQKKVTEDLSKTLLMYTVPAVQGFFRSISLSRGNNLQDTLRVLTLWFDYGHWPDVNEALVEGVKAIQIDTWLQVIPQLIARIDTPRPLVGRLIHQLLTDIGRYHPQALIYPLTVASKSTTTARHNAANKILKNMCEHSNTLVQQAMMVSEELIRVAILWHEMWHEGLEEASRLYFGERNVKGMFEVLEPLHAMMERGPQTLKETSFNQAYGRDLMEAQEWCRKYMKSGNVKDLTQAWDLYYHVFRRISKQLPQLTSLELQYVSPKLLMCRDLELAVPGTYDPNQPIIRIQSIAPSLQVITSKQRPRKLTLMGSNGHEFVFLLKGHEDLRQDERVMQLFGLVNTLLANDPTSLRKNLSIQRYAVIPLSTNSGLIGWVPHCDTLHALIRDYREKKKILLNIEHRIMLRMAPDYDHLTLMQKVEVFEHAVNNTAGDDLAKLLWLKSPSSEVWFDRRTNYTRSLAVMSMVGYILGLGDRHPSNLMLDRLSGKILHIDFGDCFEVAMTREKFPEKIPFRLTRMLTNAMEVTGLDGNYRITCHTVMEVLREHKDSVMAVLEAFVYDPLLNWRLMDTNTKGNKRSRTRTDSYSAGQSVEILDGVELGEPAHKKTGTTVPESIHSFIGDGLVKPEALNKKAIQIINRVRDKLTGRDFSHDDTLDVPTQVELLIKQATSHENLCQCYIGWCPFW

Row | IC50 [1] [nM] | IC50 [2] [nM] | SMILES
1 | 27.2 | – | CCNC(=O)Nc1ccc(-c2nc(N3CCOC[C@@H]3C)cc(C3(S(=O)(=O)c4ccc(NCC)c(Cl)c4)CC3)n2)cc1 [Example 95k, 1-[4-[4-[1-(3-chloro-4-ethylamino-phenyl)sulfonylcyclopro-pyl]-6-[(3S)-3-methylmorpho-lin-4-yl]pyrimidin-2-yl]phenyl]-3-ethylurea]
2 | 36.3 | – | C[C@H]1COCCN1c1cc(C2(S(C)(=O)=O)CCCC2)nc(-c2ccc(NC(=O)NC3CC3)nc2)n1 [Example 14n, 3-cyclopropyl-1-[5-[4-[(3S)-3-methylmorpholin-4-yl]-6-(1-methylsulfonylcyclopentyl)pyri-midin-2-yl]pyridin-2-yl]urea]
3 | 30.1 | – | CC(C)(CO)NC(=O)Nc1ccc(-c2nc(N3CCOCC3)cc(C3(S(=O)(=O)C4CC4)CC3)n2)cc1 [Example 13e, 1-[4-[4-(1-cyclopropylsulfonylcyclopropyl)-6-morpholin-4-ylpyrimidin-2-yl]phenyl]-3-(1-hydroxy-2-methylpropan-2-yl)urea]
4 | – | 5.91 | CNC(=O)Nc1ccc(-c2nc(N3CCOC[C@@H]3C)cc(C3(S(=O)(=O)c4ccccc4C(F)(F)F)CC3)n2)cc1 [Example 10i, 3-methyl-1-[4-[4-[(3S)-3-methylmorpholin-4-yl]-6-[1-[2-(trifluoromethyl)phenyl]sulfonylcyclopropyl]pyrimidin-2-yl]phenyl]urea]
5 | 15.6 | – | Cc1nn(C)cc1S(=O)(=O)C1(c2cc(N3CCOC[C@@H]3C)nc(-c3ccc(NC(=O)Nc4cnn(C)c4)cc3)n2)CC1 [Example 55f, 1-[4-[4-[1-(1,3-dimethylpyrazol-4-yl)sulfonylcyclopropyl]-6-[(3S)-3-methylmorpholin-4-yl]pyrimidin-2-yl]phenyl]-3-(1-methylpyrazol-4-yl)urea]
6 | 4.11 | – | C[C@H]1COCCN1c1cc(C2(S(C)(=O)=O)CC2)nc(-c2ccc(NC(=S)NC3CC3)cc2)n1 [Example 35d, 3-cyclopropyl-1-[4-[4-[(3S)-3-methylmorpholin-4-yl]-6-(1-methylsulfonylcyclopropyl)pyrimidin-2-yl]phenyl]thiourea]
7 | 1.2 | – | C[C@H]1COCCN1c1cc(C2(S(=O)(=O)c3ccc(F)c(F)c3)CC2)nc(-c2ccc(NC(=O)NCCO)cc2)n1 [Example 64j, 1-[4-[4-[1-(3,4-difluorophenyl)sulfonylcyclopro-pyl]-6-[(3S)-3-methylmorpholin-4-yl]pyrimidin-2-yl]phenyl]-3-(2-hydroxyethyl)urea]
8 | – | 48.8 | C[C@H]1COCCN1c1cc(C2(S(=O)(=O)C3CC3)CC2)nc(-c2ccc(NC(=O)NCC(C)(C)O)cc2)n1 [Example 3r, 1-[4-[4-(1-cyclopropylsulfonylcyclopropyl)-6-[(3S)-3-methylmorpholin-4-yl]pyrimidin-2-yl]phenyl]-3-(2-hydroxy-2-methylpropyl)urea]
9 | 5.55 | – | CNC(=O)Nc1ccc(-c2nc(N3CCOC[C@@H]3C)cc(C3(S(=O)(=O)C(C)(C)C)CC3)n2)cc1 [Example 18i, 1-[4-[4-(1-tert-butylsulfonylcyclopropyl)-6-[(3S)-3-methylmorpholin-4-yl]pyrimidin-2-yl]phenyl]-3-methylurea]
10 | 16.4 | – | O=C(NCCCO)Nc1ccc(-c2nc(N3CCOCC3)cc(C3(S(=O)(=O)c4ccccc4)CC3)n2)cc1 [Example 36dg, 1-[4-[4-[1-(benzenesulfonyl)cyclopropyl]-6-morpholin-4-ylpyrimidin-2-yl]phenyl]-3-(3-hydroxypropyl)urea]
11 | 286 | – | CCCNC(=O)Nc1ccc(-c2nc(N3CCOC[C@@H]3C)cc(C3(S(=O)(=O)CCCO)CCOCC3)n2)cc1 [Example 36cf, 3-[4-[4-[4-(3-hydroxypropylsulfonyl)oxan-4-yl]-6-[(3S)-3-methylmorpholin-4-yl]pyrimidin-2-yl]phenyl]-1-propylurea]
12 | 5.61 | – | C[C@H]1COCCN1c1cc(C2(S(=O)(=O)c3ccccn3)CCC2)nc(-c2ccc(NC(=O)NCCC#N)cc2)n1 [Example 36ai, 3-(2-cyanoethyl)-1-[4-[4-[(3S)-3-methylmorpholin-4-yl]-6-(1-pyridin-2-ylsulfonylcyclobutyl)pyrimidin-2-yl)phenyl]urea]
